The test system of series [1] is HIV-1 (RF). Description: HIV RNA assay: microplate based compound evaluation in HIV-1 infected MT-2 cells. It is filed as cell-based. Conditions: Human immunodeficiency virus 1, MT2, 72 h; HIV-1 (RF) infected MT-2 cells, 3 days of culture; virus inoculum standardised to this value; read-out: IC90 value (concentration of compound required to reduce the HIV RNA level by 90%). As for the experimental part:
MT-2 and MT-4 cells were maintained in RPMI 1640 supplemented with 5% fetal calf serum (FCS) for MT-2 cells or 10% FCS for MT-4 cells, 2 mM L-glutamine and 50 μg/mL gentamycin, all from Gibco. HIV-1 RF was propagated in MT-4 cells in the same medium. Virus stocks were prepared approximately 10 days after acute infection of MT-4 cells and stored as aliquots at −70° C. Infectious titers of HIV-1 (RF) stocks were 1-3×10^7 PFU (plaque forming units)/mL as measured by plaque assay on MT-2 cells (see below). Each aliquot of virus stock used for infection was thawed only once.
For evaluation of antiviral efficacy, cells to be infected were subcultured one day prior to infection. […]
Cell lysates or purified RNA in 3 M or 5 M GED were mixed with 5 M GED and capture probe to a final guanidinium isothiocyanate concentration of 3 M and a final biotin oligonucleotide concentration of 30 nM. […] Immobilized alkaline phosphatase activity was detected by addition of 100 μL of 0.2 mM 4-methylumbelliferyl phosphate (MUBP, JBL Scientific) in buffer δ (2.5 M diethanolamine pH 8.9 (JBL Scientific), 10 mM MgCl2, 5 mM zinc acetate dihydrate and 5 mM N-hydroxyethyl-ethylene-diamine-triacetic acid). […] Fluorescence at […] was measured using a microplate fluorometer (Dynateck) exciting at […]. […]

≈ marks a conversion by molar mass, not a printed value.

For the compound `CN1CC(=O)Nc2ccc(Cl)cc2C1(C#CC1CC1)C(F)(F)F` (stereo not drawn) [compound 175, 7-Chloro-4-methyl-5-(cyclopropylethynyl)-1,5-dihydro-5-(trifluoromethyl)-1,4-benzodiazepin-2-one], the melting point was 135 to 136 °C.

Consider `CCCCCC1(C(F)(F)F)N=C(CC(C)C)C(=O)Nc2ccc(Cl)cc21` (stereo not drawn) [compound 176, 7-Chloro-3-(2-methylpropyl)-5-pentyl-1,5-dihydro-5-(trifluoromethyl)-1,4-benzodiazepin-2-one], for which the melting point lay within 94 to 95 °C. On the same count and under the same terms, the same measure for `CCCCCC1(C(F)(F)F)N=CC(=O)Nc2ccc(Cl)cc21` (stereo not drawn) [compound 179, 7-Chloro-5-pentyl-1,5-dihydro-5-(trifluoromethyl)-1,4-benzodiazepin-2-one]: 142 to 143 °C; for `Cc1cccc(F)c1CN1CC(=O)Nc2ccc(Cl)cc2C1C(F)(F)F` (stereo not drawn) [compound 180, 7-Chloro-4-(2-fluoro-6-methylbenzyl)-1,5-dihydro-5-(trifluoromethyl)-1,4-benzodiazepin-2-one]: 196 to 197 °C; for `CCCCCC1(C(F)(F)F)N=C(C)C(=O)Nc2ccccc21` (stereo not drawn) [compound 181, 3-Methyl-5-pentyl-1,5-dihydro-5-(trifluoromethyl)-1,4-benzodiazepin-2-one]: 139 to 140 °C.

With `CCC1=NC(C#CC2CC2)(C(F)(F)F)c2ccccc2NC1=O` (stereo not drawn) [compound 186, 3-Ethyl-5-(cyclopropylethynyl)-1,5-dihydro-5-(trifluoromethyl)-1,4-benzodiazepin-2-one], the melting point was in the range of 181 to 182 °C. `CCCCCC1(C(F)(F)F)N=CC(=O)Nc2ccc(Cl)cc21` (stereo not drawn) [compound 187, 7-Chloro-5-pentyl-1,5-dihydro-5-(trifluoromethyl)-1,4-benzodiazepin-2-one]: the melting point fell in the range of 153 to 155 °C. Turning to `CC(C)CCC1(C(F)(F)F)N=CC(=O)Nc2ccc(Cl)cc21` (stereo not drawn) [compound 188, 7-Chloro-5-(3-methylbutyl)-1,5-dihydro-5-(trifluoromethyl)-1,4-benzodiazepin-2-one], the melting point was 150 to 152 °C. On to `CC(C)CCC1(C(F)(F)F)N=CC(=O)Nc2ccc(Cl)cc21` (stereo not drawn) [compound 189, 7-Chloro-5-(3-methylbutyl)-1,5-dihydro-5-(trifluoromethyl)-1,4-benzodiazepin-2-one], for which the melting point is 151 to 153 °C. Regarding `O=C1C=NC(Cc2ccccc2)(C(F)(F)F)c2cc(Cl)ccc2N1` (stereo not drawn) [compound 190, 7-Chloro-5-benzyl-1,5-dihydro-5-(trifluoromethyl)-1,4-benzodiazepin-2-one], the melting point lay within 160 to 162 °C. As for `O=C1C=NC(/C=C/C2CC2)(C(F)(F)F)c2cc(Cl)ccc2N1` (stereo not drawn) [compound 191, 7-Chloro-5-(2-cyclopropyl-E-ethenyl)-1,5-dihydro-5-(trifluoromethyl)-1,4-benzodiazepin-2-one], the melting point fell in the range of 150 to 153 °C.

`CCCCCCC1(C(F)(F)F)N=CC(=O)Nc2ccc(Cl)cc21` (stereo not drawn) [compound 192, 7-Chloro-5-hexyl-1,5-dihydro-5-(trifluoromethyl)-1,4-benzodiazepin-2-one] showed a melting point of 115 to 120 °C. Still for that read-out and setting: the same measure for `O=C1C=NC(CCC2CC2)(C(F)(F)F)c2cc(Cl)ccc2N1` (stereo not drawn) [compound 193, 7-Chloro-5-(2-cyclopropylethyl)-1,5-dihydro-5-(trifluoromethyl)-1,4-benzodiazepin-2-one]: 152 to 155 °C; for `CC1=NC(CCC2CC2)(C(F)(F)F)c2cc(Cl)ccc2NC1=O` (stereo not drawn) [compound 194, 7-Chloro-3-methyl-5-(2-cyclopropylethyl)-1,5-dihydro-5-(trifluoromethyl)-1,4-benzodiazepin-2-one]: 146 to 148 °C. As for `O=C1C=NC(C#CC2CC2)(C(F)(F)F)c2c(ccc(F)c2F)N1` (stereo not drawn) [compound 195, 6,7-Difluoro-5-(2-cyclopropylethynyl)-1,5-dihydro-5-(trifluoromethyl)-1,4-benzodiazepin-2-one], the melting point is 185 to 187 °C. Same read-out and setting: the same measure for `O=C1C=NC(CC2CC2)(C(F)(F)F)c2cc(Cl)ccc2N1` (stereo not drawn) [compound 196, 7-Chloro-5-(cyclopropylmethyl)-1,5-dihydro-5-(trifluoromethyl)-1,4-benzodiazepin-2-one]: 105 to 108 °C; for `O=C1C=NC(CCCC(F)(F)F)(C(F)(F)F)c2cc(Cl)ccc2N1` (stereo not drawn) [compound 197, 7-Chloro-5-(4,4,4-trifluorobutyl)-1,5-dihydro-5-(trifluoromethyl)-1,4-benzodiazepin-2-one]: 178 to 180 °C; for `COc1ccc2c(c1)C(C#CC1CC1)(C(F)(F)F)N=CC(=O)N2` (stereo not drawn) [compound 198, 7-Methoxy-5-(cyclopropylethynyl)-1,5-dihydro-5-(trifluoromethyl)-1,4-benzodiazepin-2-one]: 145 to 146 °C. On the same count and under the same terms, the same measure for `O=C1C=NC(C#CC2CC2)(C(F)(F)F)c2cc(F)ccc2N1` (stereo not drawn) [compound 199, 7-Fluoro-5-(cyclopropylethynyl)-1,5-dihydro-5-(trifluoromethyl)-1,4-benzodiazepin-2-one]: 175 to 178 °C. Take `O=C1C=NC(/C=C\C2CC2)(C(F)(F)F)c2cc(F)ccc2N1` (stereo not drawn) [compound 200, 7-Fluoro-5-(2-cyclopropyl-Z-ethenyl)-1,5-dihydro-5-(trifluoromethyl)-1,4-benzodiazepin-2-one]: the melting point was in the range of 158 to 160 °C. `O=C1C=NC(CCC(F)(F)F)(C(F)(F)F)c2c(ccc(F)c2F)N1` (stereo not drawn) [compound 201, 6,7-Difluoro-5-(3,3,3-trifluoropropyl)-1,5-dihydro-5-(trifluoromethyl)-1,4-benzodiazepin-2-one] showed a melting point of 160 to 163 °C.

The compound `O=C1C=NC(Cc2ccccn2)(C(F)(F)F)c2cc(Cl)ccc2N1` (stereo not drawn) [compound 202, 7-Chloro-5-(2-pyridylmethyl)-1,5-dihydro-5-(trifluoromethyl)-1,4-benzodiazepin-2-one] displayed a melting point of 137 to 140 °C. The compound `CCCCC1(C(F)(F)F)N=CC(=O)Nc2ccc(Cl)cc21` (stereo not drawn) [compound 203, 7-Chloro-5-butyl-1,5-dihydro-5-(trifluoromethyl)-1,4-benzodiazepin-2-one] showed a melting point of 174 to 176 °C.

For `Nc1ccn([C@H]2CC[C@@H](CO)O2)c(=O)n1` [ddC, 2′,3′-dideoxycytidine], the IC90 in series [1] was 0.2 µg/mL (≈ 0.947 µM).

The record behind these values is patent publication US6462037B1, “1,4-benzodiazepin-2-ones useful as HIV reverse transcriptase inhibitors” (Bristol-Myers Squibb Pharma Company, priority 1999, dated 2002).
